Experimental data taken from patent US20230067929A1, “HETEROCYCLIC DERIVATIVES, PHARMACEUTICAL COMPOSITIONS AND THEIR USE IN THE TREATMENT, AMELIORATION OR PREVENTION OF CANCER” (Tolremo Therapeutics AG, priority 2018, published 2023).

System: A375 cells
Test: A375 cell immunofluorescence assay (with 1 μM S1152 and 0.5 μM S1008), EC50
Format: cell-based
Details: 1 μM S1152 + 0.5 μM S1008, one day, ratio FL2/FL3 staining (sc-365823 antibody)
Procedure: One thousand four hundred A375 cells were seeded in each well of a 384 well microplate. One day later they were treated with 1 μM S1152 (Selleckchem) in dimethyl sulfoxide, 0.5 μM S1008 (Selleckchem) and dose ranges of invention compounds for one day in Dulbecco's Modified Eagle's Medium supplemented with 10% fetal calf serum and 2 mM (2S)-2-amino-4-carbamoylbutanoic acid. Wells were incubated with 4% polyoxymethylene (Sigma Aldrich 158127) at ambient temperature. After ten minutes, polyoxymethylene was replaced with phosphate-buffered saline. After one minute phosphate-buffered saline was replaced with 0.2% polyethylene glycol octylphenyl ether in phosphate-buffered saline. After ten minutes at ambient temperature 0.2% polyethylene glycol octylphenyl ether in phosphate-buffered saline was replaced with 1% aminoethanoic acid in phosphate-buffered saline. […] After one hour at 37° C., the solution was replaced with phosphate-buffered saline twice. Phosphate-buffered saline was replaced with 2 μg/ml A-11029 (Invitrogen) in 0.05% polyoxyethylene (20) sorbitan monolaurate in phosphate-buffered saline. […] After one hour at ambient temperature in the dark, signal in wells was measured with a Acumen Cellista. 3,8-Diamino-5-[3-(diethylmethylammonio)propyl]-6-phenylphenanthridinium diiodide-positive objects were defined in FL3 (565-600 nm) with a perimeter between 50-800 μm and a total intensity of 10000-1000000 FLU. Signal in FL2 (500-530 nm) was measured in defined objects. A normalized ratio of total ln FL2 over total ln FL3 staining was log transformed. A non-linear regression (variable slope, 4 parameters) was used to calculate EC50 values using GraphPad Prism (Version 7.0d).

| EC50 [µM] | Compound |
| --- | --- |
| 1 to 10 | CCC(=O)N1CCCC(c2nc(Nc3cccc(F)c3)cc(-c3cccnc3)n2)C1 (stereo not shown) |
| > 10 | CCC(=O)N1CCCC(c2nc(Nc3cccc(F)c3)cc(C3=CCCC3)n2)C1 (stereo not shown) |
| 1 to 10 | CCC(=O)N1CCCC(c2nc(Nc3cccc(F)c3)cc(-c3cccc(N4CCOCC4)c3)n2)C1 (stereo not shown) |
| > 10 | CCC(=O)N1CCCC(c2nc(Nc3cccc(F)c3)cc(-c3cccc(OC(F)F)c3)n2)C1 (stereo not shown) |
| > 10 | CCC(=O)N1CCCC(c2nc(Nc3cccc(F)c3)cc(-c3ccc(N(C)C)nc3)n2)C1 (stereo not shown) |
| 1 to 10 | CCC(=O)N1CCCC(c2nc(Nc3cccc(F)c3)cc(-c3cncc(C)c3)n2)C1 (stereo not shown) |
| > 10 | CCC(=O)N1CCCC(c2nc(Nc3cccc(F)c3)cc(-c3ccccc3OC(F)(F)F)n2)C1 (stereo not shown) |
| > 10 | CCC(=O)N1CCCC(c2nc(Nc3cccc(F)c3)cc(-c3ccsc3)n2)C1 (stereo not shown) |
| 1 to 10 | CCC(=O)N1CCCC(c2nc(Nc3cccc(F)c3)cc(-c3cncc(OC)c3)n2)C1 (stereo not shown) |
| > 10 | CCC(=O)N1CCCC(c2nc(Nc3cccc(F)c3)cc(-c3cnn(C)c3)n2)C1 (stereo not shown) |
| 1 to 10 | COc1csc(-c2cc(Nc3cccc(F)c3)cc(C3CCCN(C(C)=O)C3)n2)c1 (stereo not shown) |
| 1 to 10 | COc1cncc(-c2cc(Nc3cccc(F)c3)cc(C3CCCN(C(C)=O)C3)n2)c1 (stereo not shown) |
| 1 to 10 | CC(=O)N1CC(c2cc(Nc3cccc(F)c3)cc(-c3cccnc3)n2)=CCC1C (stereo not shown) |
| 1 to 10 | CC(=O)N1CCCC(c2cc(Nc3cccc(F)c3)cc(-c3c(C)noc3C)n2)C1 (stereo not shown) |
| 1 to 10 | CC(=O)N1CCCC(c2cc(Nc3cccc(F)c3)cc(-c3cncnc3)n2)C1 (stereo not shown) |
| > 10 | Fc1cccc(Nc2cc(-c3cccnc3)nc(C3CCCN(CC(F)(F)F)C3)n2)c1 (stereo not shown) |
| > 10 | CC(=O)N1CCCC(c2cc(Nc3cccc(F)c3)nc(-c3cccnc3)c2)C1 (stereo not shown) |
| > 10 | CC(=O)N1CC2(c3nc(Nc4cccc(F)c4)cc(-c4cccnc4)n3)CCC1CC2 |
| > 10 | CN1CCC(c2nc(Nc3cccc(F)c3)cc(-c3cccnc3)n2)CC1=O (stereo not shown) |
| > 10 | CN1CC(c2nc(Nc3cccc(F)c3)cc(-c3cccnc3)n2)CCC1=O (stereo not shown) |
| < 1 | CC(=O)N1CC(C)CC(c2nc(Nc3cccc(F)c3)cc(-c3cccnc3)n2)C1 (stereo not shown) |
| > 10 | O=C1CCC2CCC(c3nc(Nc4cccc(F)c4)cc(-c4cccnc4)n3)CN12 (stereo not shown) |

| EC50 [µM] | Compound |
| --- | --- |
| < 1 | CC(=O)N1C[C@H](c2nc(Nc3cccc(F)c3)cc(-c3cccnc3)n2)CC[C@@H]1C |
| > 10 | CN1CC(c2nc(Nc3cccc(F)c3)cc(-c3cccnc3)n2)CC1=O (stereo not shown) |
| > 10 | CC(=O)N1CC(c2nc(Nc3cccc(F)c3)cc(-c3cccnc3)n2)CC(F)(F)C1 (stereo not shown) |
| < 1 | CC(=O)N1CC(c2ccccc2)CC(c2nc(Nc3cccc(F)c3)cc(-c3cccnc3)n2)C1 (stereo not shown) |
| > 10 | CC(=O)N1CC(c2nc(Nc3cccc(F)c3)cc(-c3cccnc3)n2)CCC1(C)C (stereo not shown) |
| 1 to 10 | CC(=O)N1CC(c2nc(Nc3cccc(F)c3)cc(-c3cccnc3)n2)CC2CCCCC21 (stereo not shown) |
| < 1 | CC(=O)N1CCCCC(c2nc(Nc3cccc(F)c3)cc(-c3cccnc3)n2)C1 (stereo not shown) |
| > 10 | CC(=O)N1CC(c2nc(Nc3cccc(F)c3)cc(-c3cccnc3)n2)Cc2ccccc21 (stereo not shown) |
| 1 to 10 | CC(=O)N1CC(OCc2ccccc2)CC(c2nc(Nc3cccc(F)c3)cc(-c3cccnc3)n2)C1 (stereo not shown) |
| > 10 | CC(=O)N1CCCC(c2nc(Nc3cccc(F)c3)cc(-c3cccnc3)n2)C1C (stereo not shown) |
| < 1 | CC(=O)N1CC(c2nc(Nc3cccc(F)c3)cc(-c3cccnc3)n2)CC(C)C1C (stereo not shown) |
| 1 to 10 | COC(=O)N1CCOCC(c2nc(Nc3cccc(F)c3)cc(-c3cccnc3)n2)C1 (stereo not shown) |
| 1 to 10 | CC(=O)N1CCOCC(c2nc(Nc3cccc(F)c3)cc(-c3cccnc3)n2)C1 (stereo not shown) |
| > 10 | CC(=O)N1CC(c2nc(Nc3cccc(F)c3)cc(-c3cccnc3)n2)CCC1c1ccccc1 (stereo not shown) |
| < 1 | CC(=O)N1C[C@H](c2nc(Nc3cccc(C)c3)cc(-c3cccnc3)n2)CC[C@@H]1C(F)(F)F |
| < 1 | CC(=O)N1C[C@H](c2nc(Nc3cccc(F)c3)cc(-c3cccnc3)n2)CC[C@@H]1C(F)(F)F |
| 1 to 10 | O=C1CCC2C(c3nc(Nc4cccc(F)c4)cc(-c4cccnc4)n3)CCCN12 (stereo not shown) |
| > 10 | CC(=O)NCCOCCOCCNC(=O)c1ccc(-c2cc(Nc3cccc(F)c3)nc(C3CCCN(C(C)=O)C3)n2)cc1 (stereo not shown) |
| 1 to 10 | CC(=O)N1CCCC(c2cc(Nc3cccc(F)c3)nc(-c3cccnc3)n2)C1 (stereo not shown) |
| 1 to 10 | CC(=O)N1CCCC(c2cc(-c3cccnc3)nc(Nc3cccc(F)c3)n2)C1 (stereo not shown) |
| 1 to 10 | CC(=O)NCCOCCOCCOCC(=O)Nc1ccc(-c2cc(Nc3cccc(F)c3)nc(C3CCCN(C(C)=O)C3)n2)cc1 (stereo not shown) |
| > 10 | O=C1CCCC2CCC(c3nc(Nc4cccc(F)c4)cc(-c4cccnc4)n3)CN12 (stereo not shown) |

| EC50 [µM] | Compound |
| --- | --- |
| 1 to 10 | O=C1CCCC2C(c3nc(Nc4cccc(F)c4)cc(-c4cccnc4)n3)CCCN12 (stereo not shown) |
| < 1 | COc1cncc(-c2cc(Nc3cccc(F)c3)nc([C@@H]3CCCN(C(C)=O)C3)n2)c1 |
| 1 to 10 | CC(=O)NCCOCCOCCOc1cncc(-c2cc(Nc3cccc(F)c3)nc(C3CCCN(C(C)=O)C3)n2)c1 (stereo not shown) |
| < 1 | CC(=O)N1C[C@H](c2nc(Nc3cccc(F)c3)cc(-c3cncc(O)c3)n2)CC[C@@H]1C |
| > 10 | CC(=O)N1C[C@@H](c2nc(Nc3cccc(F)c3)cc(-c3cncc(O)c3)n2)CC[C@H]1C |
| > 10 | C#Cc1cc(Nc2cccc(F)c2)nc(C2CCCN(C(C)=O)C2)n1 (stereo not shown) |
| > 10 | CC(=O)N1CCCC(c2nc(Nc3cccc(F)c3)cc(-c3cnn[nH]3)n2)C1 (stereo not shown) |
| 1 to 10 | CC(=O)N1CC(O)CC(c2nc(Nc3cccc(F)c3)cc(-c3cccnc3)n2)C1 (stereo not shown) |
| < 1 | CC(=O)N1CCCC(c2nc(Nc3cccc(F)c3)cc(-c3cncc(C4COC4)c3)n2)C1 (stereo not shown) |
| < 1 | CC(=O)N1CCCC(c2nc(Nc3cccc(C)c3)cc(-c3cncc(N4CCOCC4)c3)n2)C1 (stereo not shown) |
| > 10 | CC(=O)N1CCCC(c2nc(Nc3cccc(F)c3)cc(-c3cncc(N4CCN(C)CC4)c3)n2)C1 (stereo not shown) |
| < 1 | CC(=O)N1CCCC(c2nc(Nc3cccc(F)c3)cc(-c3cncc4nc(C)oc34)n2)C1 (stereo not shown) |
| > 10 | CC(=O)N1CCCC(c2nc(Nc3cccc(F)c3)cc(-c3cncc4cc[nH]c34)n2)C1 (stereo not shown) |
| < 1 | CC(=O)N1CCCC(c2nc(Nc3cccc(F)c3)cc(-c3cncc(-c4nccs4)c3)n2)C1 (stereo not shown) |
| < 1 | CC(=O)N1CCCC(c2nc(Nc3cccc(C)c3)cc(-c3cncc(-c4nccs4)c3)n2)C1 (stereo not shown) |
| > 10 | CC(=O)N1CCCC(c2nc(Nc3cccc(F)c3)cc(-c3cncc(C(=O)O)c3)n2)C1 (stereo not shown) |
| 1 to 10 | CC(=O)N1CCCC(c2nc(Nc3cccc(F)c3)cc(-c3cncc(C(=O)N4CCOCC4)c3)n2)C1 (stereo not shown) |
| 1 to 10 | CC(=O)N1CCCC(c2nc(Nc3cccc(F)c3)cc(-c3cncc(C(=O)N4C[C@@H]5C[C@H]4CO5)c3)n2)C1 (stereo partly shown) |
| > 10 | CC(=O)N1CCCC(c2nc(Nc3cccc(F)c3)cc(-c3cncc(C(=O)N4CCS(=O)(=O)CC4)c3)n2)C1 (stereo not shown) |
| 1 to 10 | CC(=O)N1CCCC(c2nc(Nc3cccc(F)c3)cc(-c3ccc(N4CCOCC4)nc3)n2)C1 (stereo not shown) |
| 1 to 10 | CC(=O)N1CCCC(c2nc(Nc3cccc(F)c3)cc(-c3ccc(N4C[C@@H]5C[C@H]4CO5)nc3)n2)C1 (stereo partly shown) |
| > 10 | CC(=O)N1CCCC(c2nc(Nc3cccc(F)c3)cc(-c3ccc(N4CCN(C)CC4)nc3)n2)C1 (stereo not shown) |

| EC50 [µM] | Compound |
| --- | --- |
| > 10 | CC(=O)N1CCCC(c2nc(Nc3cccc(F)c3)cc(-c3ccc(N4CCS(=O)(=O)CC4)nc3)n2)C1 (stereo not shown) |
| < 1 | CC(=O)N1C[C@H](c2nc(Nc3cncc(C)c3)cc(-c3cccnc3)n2)CC[C@@H]1C |
| > 10 | CC(=O)N1CCCC(c2nc(Nc3ccccn3)cc(-c3cccnc3)n2)C1 (stereo not shown) |
| 1 to 10 | CC(=O)N1CCCC(c2nc(Nc3ccccn3)cc(-c3cncc4[nH]ccc34)n2)C1 (stereo not shown) |
| > 10 | CC(=O)N1CCCC(c2nc(Nc3ccccn3)cc(-c3cncnc3)n2)C1 (stereo not shown) |
| 1 to 10 | CC(=O)N1CCCC(c2nc(Nc3cncc(C)c3)cc(-c3cncnc3)n2)C1 (stereo not shown) |
| 1 to 10 | CC(=O)N1CCCC(c2nc(Nc3cncc(C)c3)cc(-c3cncc4[nH]ccc34)n2)C1 (stereo not shown) |
| 1 to 10 | CC(=O)N1CCCC(c2nc(Nc3cccnc3)cc(-c3cccnc3)n2)C1 (stereo not shown) |
| > 10 | CC(=O)N1CCCC(c2nc(Nc3cccnc3)cc(-c3cncc4[nH]ccc34)n2)C1 (stereo not shown) |
| > 10 | CC(=O)N1CCCC(c2nc(Nc3cccnc3)cc(-c3cncnc3)n2)C1 (stereo not shown) |
| > 10 | CC(=O)N1CCCC(c2nc(Nc3nc(C)co3)cc(-c3cccnc3)n2)C1 (stereo not shown) |
| > 10 | CC(=O)N1CCCC(c2nc(Nc3ccon3)cc(-c3cncc4[nH]ccc34)n2)C1 (stereo not shown) |
| 1 to 10 | CC(=O)N1CCCC(c2nc(Nc3ccncc3)cc(-c3cccnc3)n2)C1 (stereo not shown) |
| 1 to 10 | CC(=O)N1CCCC(c2nc(Nc3cncc(C)n3)cc(-c3cccnc3)n2)C1 (stereo not shown) |
| > 10 | CC(=O)N1CCCC(c2nc(Nc3cncc(C)n3)cc(-c3cncnc3)n2)C1 (stereo not shown) |
| > 10 | CC(=O)N1CCCC(c2nc(Nc3cncnc3)cc(-c3cccnc3)n2)C1 (stereo not shown) |
| > 10 | CC(=O)N1CCCC(c2nc(Nc3ccncn3)cc(-c3cccnc3)n2)C1 (stereo not shown) |
| < 1 | CC(=O)N1C[C@H](c2nc(Nc3cncc(C)c3)cc(-c3cncc(C)c3)n2)CC[C@@H]1C |
| < 1 | CC(=O)N1C[C@H](c2nc(Nc3cncc(C)c3)cc(-c3cncc4[nH]ccc34)n2)CC[C@@H]1C |
